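Exposure lasted 48 hours, with cells grown in 96-well plates and compounds tested at five concentrations. GI50 = concentration required for 50% inhibition of growth.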 Activity calls are given as the source filed them. No stated cut-off is given here; in the data, active = GI50 up to about 1.1 µM and inactive = higher.

Some test systems named below: SK-MEL-28; A549; SF-539; MCF7; SNB-19; M14; MDA-MB-435; UACC-62; CAKI-1; A498; HL-60; SF-268; SW-620; HCC 2998; RPMI-8226; NCI-H23; RXF 393; HOP-62; DU-145; SK-MEL-5.
Common to all, as to experiment: NCI tumour cell line growth inhibition, 48 h

On to `N=c1c2c(ncn1N)Oc1c(c(-c3ccccc3)nn1-c1ccccc1)C2c1ccc(Cl)cc1` (centres undefined), for which the GI50 in the assay on SK-MEL-28 was 1.76 µM (inactive); with A549 it was 1.82 µM (inactive); with SF-539, 1.18 µM (inactive); in the assay with MCF7, 1.44 µM (inactive); in the assay on SNB-19 it was 1.47 µM (inactive); in the assay on M14 it was 1.56 µM (inactive). Besides, the GI50 in the assay with MDA-MB-435 was 1.62 µM (inactive); in the assay with UACC-62 it was 1.54 µM (inactive); in the assay on CAKI-1, 2.1 µM (inactive); with A498, 1.86 µM (inactive); with HL-60, 0.408 µM (active); in the assay with SF-268 it was 1.71 µM (inactive). Moreover, the GI50 was 1.75 µM (inactive) in the assay with SW-620; 0.762 µM (active) in the assay with HCC 2998; 2.35 µM (inactive) with RPMI-8226; 1.87 µM (inactive) in the assay with NCI-H23; 1.47 µM (inactive) in the assay on RXF 393; 1.66 µM (inactive) in the assay with HOP-62. Also, the GI50 with DU-145 is 2.01 µM (inactive).

With `Oc1[nH]c(Nc2cccc(Cl)c2)nc2ncnc1-2`, the GI50 in the assay on A549 was > 100 µM (inactive); in the assay on SF-539, 82.8 µM (inactive); with MCF7 it was > 100 µM (inactive); with SNB-19, > 100 µM (inactive); in the assay on M14 it was 95.7 µM (inactive); with MDA-MB-435, 83.8 µM (inactive). For the same molecule, the GI50 was 63.7 µM (inactive) in the assay with UACC-62; > 100 µM (inactive) in the assay on CAKI-1; > 100 µM (inactive) in the assay with A498; 79.8 µM (inactive) in the assay on HL-60; > 100 µM (inactive) in the assay on SF-268; > 100 µM (inactive) in the assay on SW-620. Also, the GI50 with HCC 2998 is 76.6 µM (inactive); in the assay on SK-MEL-5, > 100 µM (inactive); with RPMI-8226, > 100 µM (inactive); in the assay with NCI-H23, > 100 µM (inactive); with RXF 393 it was > 100 µM (inactive); in the assay with HOP-62, 28.1 µM (inactive). Further, the GI50 in the assay with DU-145 is 74.6 µM (inactive).

Turning to `C[C@@H]1OC2(O)[C@@H]3CCCN3C(=O)N(Cc3ccccc3)N2C1=O` (some centres undefined), the GI50 in the assay with SK-MEL-28, with A549, with SF-539, in the assay with MCF7, with SNB-19 and with M14 was > 100 µM (inactive) throughout. Moreover, the GI50 with MDA-MB-435, in the assay with UACC-62, in the assay with CAKI-1, with A498, with HL-60 and in the assay with SF-268 was > 100 µM (inactive) throughout. Besides, the GI50 with SW-620, in the assay on HCC 2998, in the assay with SK-MEL-5, with NCI-H23, in the assay on RXF 393 and in the assay on HOP-62 was > 100 µM (inactive) each time. Moreover, the GI50 with DU-145 is > 100 µM (inactive).

On to `O=C(CC(Cl)=C(Cl)Cl)c1ccccc1`, for which the GI50 with SK-MEL-28 was 55.7 µM (inactive); in the assay with A549 it was > 100 µM (inactive); in the assay with SF-539, > 100 µM (inactive); with MCF7 it was > 100 µM (inactive); in the assay on SNB-19, > 100 µM (inactive); in the assay with M14, 49.5 µM (inactive). In addition, the GI50 in the assay with MDA-MB-435 was 36.3 µM (inactive); in the assay with UACC-62, 37.5 µM (inactive); in the assay with CAKI-1, 24.1 µM (inactive); in the assay on A498 it was > 100 µM (inactive); in the assay on HL-60, 55.8 µM (inactive); in the assay with SF-268 it was > 100 µM (inactive). The GI50 is 38.3 µM (inactive) in the assay with SW-620; > 100 µM (inactive) in the assay on SK-MEL-5; 18 µM (inactive) in the assay on RPMI-8226; 81.1 µM (inactive) in the assay with NCI-H23; 21.2 µM (inactive) in the assay on RXF 393; > 100 µM (inactive) in the assay on HOP-62. The GI50 with DU-145 was > 100 µM (inactive).

Consider `CN(C)CCCN1c2ccccc2C(C)(C)c2ccccc21` [DIMETACRINE], for which the GI50 with SK-MEL-28 was 15.4 µM (inactive); in the assay on A549, 14.8 µM (inactive); in the assay with SF-539, 15.2 µM (inactive); in the assay with MCF7, 14.8 µM (inactive); with SNB-19 it was 15.5 µM (inactive); in the assay on M14 it was 15.5 µM (inactive). Further, the GI50 in the assay on MDA-MB-435 is 13.2 µM (inactive); in the assay on UACC-62, 13.1 µM (inactive); with CAKI-1, 12.6 µM (inactive); in the assay on A498, 11 µM (inactive); with HL-60 it was 15.1 µM (inactive); in the assay with SF-268, 13.3 µM (inactive). Further, the GI50 in the assay on SW-620 was 21.2 µM (inactive); in the assay with SK-MEL-5, 13.4 µM (inactive); in the assay on RPMI-8226 it was 13.1 µM (inactive); in the assay with NCI-H23, 16.3 µM (inactive); in the assay on RXF 393, 12.9 µM (inactive); in the assay on HOP-62 it was 14.8 µM (inactive). Besides, the GI50 with DU-145 was 15.9 µM (inactive).

With `COc1cc(CNC(=O)CCCCCCCCCCSC#N)ccc1O`, the GI50 is 7.66 µM (inactive) in the assay with SK-MEL-28; 19.1 µM (inactive) in the assay on A549; 18 µM (inactive) with SF-539; 17.1 µM (inactive) with MCF7; 19.7 µM (inactive) in the assay on SNB-19; 7.38 µM (inactive) in the assay on M14. Further, the GI50 is 5.52 µM (inactive) in the assay with MDA-MB-435; 5.41 µM (inactive) with UACC-62; 18.2 µM (inactive) with CAKI-1; 15.1 µM (inactive) with A498; 5.69 µM (inactive) in the assay on HL-60; 16.2 µM (inactive) in the assay with SW-620. The GI50 in the assay with HCC 2998 is > 100 µM (inactive); in the assay with SK-MEL-5, 6.22 µM (inactive); in the assay with RPMI-8226, 14.6 µM (inactive); in the assay on NCI-H23 it was 20.6 µM (inactive); with RXF 393, 10.2 µM (inactive); with DU-145, 17.8 µM (inactive).

As to `COc1c2ccsc2c(OC)c2ccsc12`, the GI50 in the assay on SK-MEL-28 is > 100 µM (inactive); in the assay on A549 it was > 100 µM (inactive); with SF-539, 26.1 µM (inactive); with MCF7, > 100 µM (inactive); in the assay with SNB-19, > 100 µM (inactive); with M14 it was > 100 µM (inactive). Moreover, the GI50 in the assay with MDA-MB-435 was > 100 µM (inactive); in the assay on UACC-62, > 100 µM (inactive); in the assay with CAKI-1, 0.478 µM (active); with A498 it was > 100 µM (inactive); with HL-60 it was > 100 µM (inactive); with SF-268 it was > 100 µM (inactive). Further, the GI50 with SW-620 was > 100 µM (inactive); in the assay with HCC 2998 it was > 100 µM (inactive); in the assay with SK-MEL-5 it was > 100 µM (inactive); in the assay with NCI-H23, > 100 µM (inactive); in the assay with RXF 393, 35.2 µM (inactive); with HOP-62 it was 40.2 µM (inactive). For the same molecule, in the assay on DU-145, the GI50 is > 100 µM (inactive).

As to `CC(=O)NC1C(OCc2ccccc2)OC(CO)C(O)C1OCC(=O)N[C@@H](C)C(=O)N[C@H](CCC(=O)NCCNCCNc1c2ccccc2nc2cccc([N+](=O)[O-])c12)C(N)=O` (some centres undefined), the GI50 is > 100 µM (inactive) in the assay with SK-MEL-28; 35.4 µM (inactive) in the assay on A549; 33.3 µM (inactive) in the assay with SF-539; 37.9 µM (inactive) in the assay on MCF7; 38.9 µM (inactive) with SNB-19; 56 µM (inactive) with M14. For the same molecule, the GI50 in the assay with MDA-MB-435 is 29.6 µM (inactive); in the assay on UACC-62, 17.7 µM (inactive); with CAKI-1, 22.6 µM (inactive); with A498 it was 19.8 µM (inactive); in the assay on HL-60, 26.2 µM (inactive); with SW-620, 39.1 µM (inactive). Further, the GI50 is 6.52 µM (inactive) in the assay on HCC 2998; 17.8 µM (inactive) with SK-MEL-5; 24.4 µM (inactive) in the assay on RPMI-8226; 16.4 µM (inactive) with NCI-H23; 36.4 µM (inactive) in the assay with RXF 393; 41.4 µM (inactive) in the assay on HOP-62. Also, in the assay with DU-145, the GI50 was 36.6 µM (inactive).

In the case of `CNc1ncnc2c1nnn2C`, the GI50 in the assay on SK-MEL-28, in the assay with A549, in the assay with SF-539, in the assay with MCF7, in the assay on SNB-19 and in the assay with M14 was > 100 µM (inactive) each time. For the same molecule, the GI50 in the assay with MDA-MB-435, with UACC-62, in the assay on CAKI-1, with A498, in the assay on HL-60 and in the assay on SW-620 was > 100 µM (inactive) each time. For the same molecule, the GI50 with HCC 2998, in the assay with SK-MEL-5, in the assay with RPMI-8226, in the assay with NCI-H23, with RXF 393 and in the assay on HOP-62 was > 100 µM (inactive) each time. The GI50 with DU-145 is > 100 µM (inactive).

As for `COc1cc2cc(C(=O)N3CC(COS(C)(=O)=O)c4ccc(NC(=O)OCc5ccccc5)cc43)[nH]c2c(OC)c1OC` (centres undefined), the GI50 is > 100 µM (inactive) with SK-MEL-28; > 100 µM (inactive) in the assay with A549; > 100 µM (inactive) in the assay with SF-539; 0.55 µM (active) with MCF7; > 100 µM (inactive) in the assay with SNB-19; > 100 µM (inactive) in the assay with M14. Moreover, the GI50 was > 100 µM (inactive) in the assay on MDA-MB-435; > 100 µM (inactive) in the assay with UACC-62; > 100 µM (inactive) in the assay with CAKI-1; 43.3 µM (inactive) in the assay with A498; > 100 µM (inactive) with HL-60; > 100 µM (inactive) in the assay on SF-268. Further, the GI50 is > 100 µM (inactive) with SW-620; 84.3 µM (inactive) in the assay with HCC 2998; 26.5 µM (inactive) in the assay on SK-MEL-5; 17 µM (inactive) in the assay with NCI-H23; 25.2 µM (inactive) with RXF 393; 79.1 µM (inactive) with HOP-62. Besides, the GI50 in the assay with DU-145 was > 100 µM (inactive).

The values above are taken from ChEMBL document CHEMBL1201862, “PubChem BioAssay data set” (2004).
